Data from paper PMC11277489, “Novel Piperazine Derivatives of Vindoline as Anticancer Agents” (International Journal of Molecular Sciences, 2024).

What was measured:
[1] = test system: CCRF-CEM; test: NCI60 one-dose screen (10 μM), Leukemia; assay type: cell-based; settings: Homo sapiens, 10 μM, Leukemia, read-out: Growth percent rate
[2] = test system: HL-60(TB); test: NCI60 one-dose screen (10 μM), Leukemia; assay type: cell-based; settings: Homo sapiens; 10 μM; HL-60(TB), Leukemia; read-out: Growth percent rate
[3] = test system: K-562; test: NCI60 one-dose screen (10 μM), Leukemia; assay type: cell-based; settings: Homo sapiens, K562; 10 μM; K-562, Leukemia; read-out: Growth percent rate
[4] = test system: MOLT-4; test: NCI60 one-dose screen (10 μM), Leukemia; assay type: cell-based, human; settings: Homo sapiens; 10 μM; MOLT-4, Leukemia; read-out: Growth percent rate
[5] = test system: RPMI-8226; test: NCI60 one-dose screen (10 μM), Leukemia; assay type: cell-based; settings: Homo sapiens; 10 μM; RPMI-8226, Leukemia; read-out: Growth percent rate
[6] = test system: A549/ATCC; test: NCI60 one-dose screen (10 μM), Non-small Cell Lung Cancer; assay type: cell-based; settings: Homo sapiens; 10 μM; A549/ATCC, Non-small Cell Lung Cancer; read-out: Growth percent rate
[7] = test system: EKVX; test: as above; assay type: cell-based; settings: Homo sapiens, 10 μM, Non-small Cell Lung Cancer, read-out: Growth percent rate
[8] = test system: HOP-62; test: as above; assay type: cell-based; settings: Homo sapiens; 10 μM; HOP-62, Non-small Cell Lung Cancer; read-out: Growth percent rate
[9] = test system: NCI-H23; test: as above; assay type: cell-based; settings: Homo sapiens; 10 μM; NCI-H23, Non-small Cell Lung Cancer; read-out: Growth percent rate
[10] = test system: NCI-H322M; test: as above; assay type: cell-based; settings: Homo sapiens, 10 μM, Non-small Cell Lung Cancer, read-out: Growth percent rate
[11] = test system: NCI-H460; test: as above; assay type: cell-based; settings: Homo sapiens; 10 μM; NCI-H460, Non-small Cell Lung Cancer; read-out: Growth percent rate
[12] = test system: NCI-H522; test: as above; assay type: cell-based; settings: Homo sapiens; 10 μM; NCI-H522, Non-small Cell Lung Cancer; read-out: Growth percent rate
[13] = test system: HCC-2998; test: NCI60 one-dose screen (10 μM), Colon Cancer; assay type: cell-based; settings: Homo sapiens; 10 μM; HCC-2998, Colon Cancer; read-out: Growth percent rate
[14] = test system: HCT-116; test: NCI60 one-dose screen (10 μM), Colon Cancer; assay type: cell-based; settings: Homo sapiens; 10 μM; HCT-116, Colon Cancer; read-out: Growth percent rate
[15] = test system: HT29; test: NCI60 one-dose screen (10 μM), Colon Cancer; assay type: cell-based; settings: Homo sapiens, HT-29; 10 μM; HT29, Colon Cancer; read-out: Growth percent rate
[16] = test system: KM12; test: NCI60 one-dose screen (10 μM), Colon Cancer; assay type: cell-based, human; settings: Homo sapiens; 10 μM; KM12, Colon Cancer; read-out: Growth percent rate
[17] = test system: SW-620; test: NCI60 one-dose screen (10 μM), Colon Cancer; assay type: cell-based; settings: Homo sapiens; 10 μM; SW-620, Colon Cancer; read-out: Growth percent rate
[18] = test system: SF-268; test: NCI60 one-dose screen (10 μM), CNS Cancer; assay type: cell-based; settings: Homo sapiens; 10 μM; SF-268, CNS Cancer; read-out: Growth percent rate
[19] = test system: SF-295; test: NCI60 one-dose screen (10 μM), CNS Cancer; assay type: cell-based; settings: Homo sapiens; 10 μM; SF-295, CNS Cancer; read-out: Growth percent rate
[20] = test system: SNB-19; test: NCI60 one-dose screen (10 μM), CNS Cancer; assay type: cell-based; settings: Homo sapiens; 10 μM; SNB-19, CNS Cancer; read-out: Growth percent rate
[21] = test system: SNB-75; test: NCI60 one-dose screen (10 μM), CNS Cancer; assay type: cell-based, human; settings: Homo sapiens; 10 μM; SNB-75, CNS Cancer; read-out: Growth percent rate
[22] = test system: U251; test: NCI60 one-dose screen (10 μM), CNS Cancer; assay type: cell-based; settings: Homo sapiens, U-251; 10 μM; U251, CNS Cancer; read-out: Growth percent rate
[23] = test system: MALME-3M; test: NCI60 one-dose screen (10 μM), Melanoma; assay type: cell-based; settings: Homo sapiens; 10 μM; MALME-3M, Melanoma; read-out: Growth percent rate
[24] = test system: M14; test: NCI60 one-dose screen (10 μM), Melanoma; assay type: cell-based; settings: Homo sapiens; 10 μM; M14, Melanoma; read-out: Growth percent rate
[25] = test system: MDA-MB-435; test: NCI60 one-dose screen (10 μM), Melanoma; assay type: cell-based; settings: Homo sapiens; 10 μM; MDA-MB-435, Melanoma; read-out: Growth percent rate
[26] = test system: SK-MEL-2; test: NCI60 one-dose screen (10 μM), Melanoma; assay type: cell-based; settings: Homo sapiens; 10 μM; SK-MEL-2, Melanoma; read-out: Growth percent rate
[27] = test system: SK-MEL-28; test: NCI60 one-dose screen (10 μM), Melanoma; assay type: cell-based; settings: Homo sapiens; 10 μM; SK-MEL-28, Melanoma; read-out: Growth percent rate
[28] = test system: SK-MEL-5; test: NCI60 one-dose screen (10 μM), Melanoma; assay type: cell-based, human; settings: Homo sapiens; 10 μM; SK-MEL-5, Melanoma; read-out: Growth percent rate
[29] = test system: UACC-257; test: NCI60 one-dose screen (10 μM), Melanoma; assay type: cell-based; settings: Homo sapiens; 10 μM; UACC-257, Melanoma; read-out: Growth percent rate
[30] = test system: IGROV1; test: NCI60 one-dose screen (10 μM), Ovarian Cancer; assay type: cell-based; settings: Homo sapiens, IGROV-1; 10 μM; IGROV1, Ovarian Cancer; read-out: Growth percent rate
[31] = test system: OVCAR-3; test: NCI60 one-dose screen (10 μM), Ovarian Cancer; assay type: cell-based; settings: Homo sapiens; 10 μM; OVCAR-3, Ovarian Cancer; read-out: Growth percent rate
[32] = test system: OVCAR-4; test: NCI60 one-dose screen (10 μM), Ovarian Cancer; assay type: cell-based; settings: Homo sapiens; 10 μM; OVCAR-4, Ovarian Cancer; read-out: Growth percent rate
[33] = test system: OVCAR-8; test: NCI60 one-dose screen (10 μM), Ovarian Cancer; assay type: cell-based; settings: Homo sapiens; 10 μM; OVCAR-8, Ovarian Cancer; read-out: Growth percent rate
[34] = test system: 786–0; test: NCI60 one-dose screen (10 μM), Renal Cancer; assay type: cell-based; settings: Homo sapiens; 10 μM; 786-0, Renal Cancer; read-out: Growth percent rate
[35] = test system: A498; test: NCI60 one-dose screen (10 μM), Renal Cancer; assay type: cell-based; settings: Homo sapiens; 10 μM; A498, Renal Cancer; read-out: Growth percent rate
[36] = test system: ACHN; test: NCI60 one-dose screen (10 μM), Renal Cancer; assay type: cell-based; settings: Homo sapiens, 10 μM, Renal Cancer, read-out: Growth percent rate
[37] = test system: CAKI-1; test: NCI60 one-dose screen (10 μM), Renal Cancer; assay type: cell-based; settings: Homo sapiens; 10 μM; CAKI-1, Renal Cancer; read-out: Growth percent rate
[38] = test system: SN12C; test: NCI60 one-dose screen (10 μM), Renal Cancer; assay type: cell-based; settings: Homo sapiens, 10 μM, Renal Cancer, read-out: Growth percent rate
[39] = test system: TK-10; test: NCI60 one-dose screen (10 μM), Renal Cancer; assay type: cell-based; settings: Homo sapiens; 10 μM; TK-10, Renal Cancer; read-out: Growth percent rate
[40] = test system: DU-145; test: NCI60 one-dose screen (10 μM), Prostate Cancer; assay type: cell-based; settings: Homo sapiens; 10 μM; DU-145, Prostate Cancer; read-out: Growth percent rate
[41] = test system: MCF7; test: NCI60 one-dose screen (10 μM), Breast Cancer; assay type: cell-based; settings: Homo sapiens; 10 μM; MCF7, Breast Cancer; read-out: Growth percent rate
[42] = test system: 60 human tumor cell lines (NCI60); test: NCI60 one-dose screen (10 μM), whole panel; assay type: cell-based; settings: for activity at 10 µM: mean over 60 human cancer cell lines, read-out: Growth percent rate, Mean

## CCC12C=CCN3CCC4(c5cc(NC(=O)CN6CCN(C(c7ccc(F)cc7)c7ccc(F)cc7)CC6)c(OC)cc5N(C)C4C(O)(C(=O)OC)C1OC(C)=O)C32 (stereo not shown) [Compound 20]
[1]
  activity at 10 µM: -18.9%
[2]
  activity at 10 µM: -10.8%
[3]
  activity at 10 µM: 17%
[4]
  activity at 10 µM: 1.17%
[5]
  activity at 10 µM: -2.68%
[6]
  activity at 10 µM: 31%
[7]
  activity at 10 µM: 16.2%
[8]
  activity at 10 µM: 60.3%
[9]
  activity at 10 µM: 38%
[10]
  activity at 10 µM: 42.8%
[11]
  activity at 10 µM: 17.3%
[12]
  activity at 10 µM: 11%
[13]
  activity at 10 µM: 3.93%
[14]
  activity at 10 µM: 27.9%
[15]
  activity at 10 µM: -40.8%
[16]
  activity at 10 µM: 20.2%
[17]
  activity at 10 µM: 34.2%
[18]
  activity at 10 µM: 28.1%
[19]
  activity at 10 µM: 13.8%
[20]
  activity at 10 µM: 21.5%
[21]
  activity at 10 µM: -60.5%
[22]
  activity at 10 µM: 31.7%
[23]
  activity at 10 µM: 0%
[24]
  activity at 10 µM: 49.7%
[25]
  activity at 10 µM: 22.2%
[26]
  activity at 10 µM: -34.7%
[27]
  activity at 10 µM: 51.2%
[28]
  activity at 10 µM: -76.2%
[29]
  activity at 10 µM: 37.9%
[30]
  activity at 10 µM: 44.9%
[31]
  activity at 10 µM: 36.5%
[32]
  activity at 10 µM: 31.4%
[33]
  activity at 10 µM: 45.6%
[34]
  activity at 10 µM: 34%
[35]
  activity at 10 µM: 35.6%
[36]
  activity at 10 µM: 11.4%
[37]
  activity at 10 µM: 27.7%
[38]
  activity at 10 µM: 26.9%
[39]
  activity at 10 µM: 37.6%
[40]
  activity at 10 µM: 37.1%
[41]
  activity at 10 µM: 5.47%
[42]; 10 μM one-dose, NCI60
  antiproliferative effect (in words): moderate antiproliferative activity on some colon, CNS, and melanoma cell lines
[42]
  activity at 10 µM: 12.2%

## CCC12C=CCN3CCC4(c5cc(NC(=O)CN6CCN(C(=O)c7ccco7)CC6)c(OC)cc5N(C)C4C(O)(C(=O)OC)C1OC(C)=O)C32 (stereo not shown) [Compound 21]
[1]
  activity at 10 µM: 103%
[2]
  activity at 10 µM: 114%
[3]
  activity at 10 µM: 108%
[4]
  activity at 10 µM: 101%
[5]
  activity at 10 µM: 103%
[6]
  activity at 10 µM: 101%
[7]
  activity at 10 µM: 99.2%
[8]
  activity at 10 µM: 100%
[9]
  activity at 10 µM: 106%
[10]
  activity at 10 µM: 110%
[11]
  activity at 10 µM: 108%
[12]
  activity at 10 µM: 98.2%
[13]
  activity at 10 µM: 126%
[14]
  activity at 10 µM: 108%
[15]
  activity at 10 µM: 109%
[16]
  activity at 10 µM: 99.8%
[17]
  activity at 10 µM: 113%
[18]
  activity at 10 µM: 106%
[19]
  activity at 10 µM: 110%
[20]
  activity at 10 µM: 96.2%
[21]
  activity at 10 µM: 91%
[22]
  activity at 10 µM: 118%
[23]
  activity at 10 µM: 104%
[24]
  activity at 10 µM: 110%
[25]
  activity at 10 µM: 104%
[26]
  activity at 10 µM: 111%
[27]
  activity at 10 µM: 126%
[28]
  activity at 10 µM: 105%
[29]
  activity at 10 µM: 106%
[30]
  activity at 10 µM: 127%
[31]
  activity at 10 µM: 118%
[32]
  activity at 10 µM: 108%
[33]
  activity at 10 µM: 101%
[34]
  activity at 10 µM: 104%
[35]
  activity at 10 µM: 104%
[36]
  activity at 10 µM: 109%
[37]
  activity at 10 µM: 97.5%
[38]
  activity at 10 µM: 107%
[39]
  activity at 10 µM: 109%
[40]
  activity at 10 µM: 110%
[41]
  activity at 10 µM: 98.3%
[42]
  activity at 10 µM: 108%
